Series [1] concerns the target recombinant S. aureus FabI enzyme (Staphylococcus aureus (strain MRSA252), UniProt Q6GI75). The series is described as follows: FabI inhibition, fluorescence based assay. The note with it: in vitro. Type of series: biochemical. How it is done: Compound inhibitory activity of FabI enzyme is measured in vitro by the […] determination using a fluorescence based assay.
The protein FabI from S. aureus is prepared and purified using standard methods for recombinant protein expression after cloning of the gene in a prokaryotic expression vector.
The biochemical activity of the FabI enzyme is assessed using the following method.
The assay buffer “AB” contained 50 mM ADA (N-(2-acetamido)iminodiacetic acid monosodium salt) pH 6.5, 1 mM dithiothreitol, 0.006% Triton-X100 and 50 mM NaCl.
The following components are added in a white polystyrene Costar plate (Ref 3912) up to a final volume of 55.5 μL: 1.5 μL DMSO or inhibitor dissolved in DMSO and 54 μL of a FabI/NADPH/NADP+ mixture in AB. After 60 min of pre-incubation at room temperature, the reaction is started by addition of 5 μL of trans-2-octenoyl N-acetylcysteamine thioester (t-o-NAC) to a final volume of 60.5 μL. This reaction mixture is then composed of 2 nM FabI, 40 μM NADPH (Sigma, N7505), 10 μM NADP+ (Sigma, N5755), 100 μM t-O-NAC and compound at defined concentration. Fluorescence intensity of NADPH (λex=360 nm, […]) is measured immediately after t-O-NAC addition (T0), and approximately 50 min later (T50) by a Fluostar Optima (BMG) so as to achieve ±30% of NADPH conversion. Enzyme activity is calculated by first subtracting TO signal to T50 and then subtracting background signal (FabI=0). Percentages of inhibition are calculated against untreated samples (Inhibitor=0) and IC50 are fitted to a classical Langmuir equilibrium model using XLFIT (IDBS).

A further series has as its system S. aureus CIP 54.146. Briefly: MIC determination using broth microdilution method. Type of series: cell-based. To be noted: Staphylococcus aureus, CIP54 / MSSA, read-out: MIC (μg/ml) S. aureus CIP 54.146. The procedure: The compounds of the invention are useful antibacterial agents having a selective spectrum of activity in vitro against bacterial strains relying on FabI and related targets. […] The activity is presented as Minimum Inhibitory Concentration (MIC) expressed in μg/ml and was determined using broth microdilution or Agar dilution methods.
Antibacterial activity was determined on strains from Mutabilis internal collection.
This protocol is compliant with Clinical Laboratory Standards Institute (CLSI) methodology as described in M7-A7 document of the CLSI. The compound to be tested is diluted according to a geometric series of reason 2 in pure DMSO. Dilutions are transferred in sterile polystyrene microplates, followed by mid-log phase bacteria in cation-adjusted Muller-Hinton broth (ca-MHB, Fluka, Reference 90922) with a final inoculum of 5×10^5 cfu/ml. Microplates are incubated overnight at 35° C. MIC is defined as the lowest concentration of antimicrobial agent that completely prevents visible bacterial growth. All manipulations, but compound handling (in pure DMSO), are performed under sterile conditions. The final concentration of DMSO in the plates is 2%.
For orientation: In broth dilution the organism is exposed to a series of concentrations in liquid medium.

The test system of the next series is C. albicans (ATCC 90028). The series is described as follows: MIC determination using susceptibility method (broth microdilution). The format is cell-based. The note with it: Candida albicans, ATCC90028, read-out: MIC (μg/ml) C. albicans (ATCC 90028). The procedure:
(§1) Minimum inhibitory concentrations (MICs) were determined by broth microdilution according to CLSI guidelines (CLSI, M100-20^1, M7-A8^2, M27-A3^3). The compounds were tested in the range from […]. Colonies were taken directly from a second-pass culture plate and prepared to a suspension equivalent to the 0.5 McFarland standard using normal saline. […] The panels were incubated at 35° C. for 16 to 20 hours before reading the MIC endpoints. The compounds of Examples 12, 29, 59, 63 and 66-71 were dissolved in DMSO to make the initial solutions of 5120 μg/ml. These solutions were diluted 1:10 in sterile water to a stock solution of 512 μg/ml. The stock solutions were further diluted into the appropriate broth medium for the sequential dilutions used in the broth microdilution panels. S. pneumoniae was tested in Mueller Hinton (MH) broth with 3% lysed horse blood and C. albicans was tested in RPMI-1640 medium. All other organisms were tested in MH broth.

A further series has as its system E. coli (ATCC 25922). The series is described as above. The format is cell-based. The note with it: Escherichia coli, ATCC25922, read-out: MIC (μg/ml) E. coli (ATCC 25922). The procedure: as §1
In another series the test system is E. faecalis (ATCC 29212). The series is described as above. The format is cell-based. The note with it: Enterococcus faecalis, ATCC29212, read-out: MIC (μg/ml) E. faecalis (ATCC 29212). How it is done:
as §1

A further series has as its system MRSA (IHMA #510059). Described as above. Type of series: cell-based. To be noted: Staphylococcus aureus, read-out: MIC (μg/ml) MRSA (IHMA #510059). The procedure:
as §1

A further series relates to MSSA (IHMA #555189). The description is as above. The note with it: Staphylococcus aureus, read-out: MIC (μg/ml) MSSA (IHMA #555189). The format is cell-based. The procedure:
as §1

The test system of a further series is S. aureus ATCC 29213. Described as above. To be noted: Staphylococcus aureus, ATCC29213, read-out: MIC (μg/ml) S. aureus ATCC 29213. Type of series: cell-based. How it is done: as §1
For series [2], the system named is S. pneumoniae (ATCC 49619). Described as above. The format is cell-based. To be noted: Streptococcus pneumoniae, ATCC49619, read-out: MIC (μg/ml) S. pneumoniae (ATCC 49619). How it is done: as §1
Another series has as its target human albumin (HSA) (Homo sapiens (Human), UniProt P02768). Briefly: HSA binding analysis using a chiral HSA column. The format is in vitro ADME. To be noted: for HSA Binding (%): AB%=[k′/(k′+1)]*100, pH 7.0; for HSA Binding (%) / Conclusion (HSA binding class): chiral HSA column; for k′: capacity factor, k′=(Tr−T0)/T0; for Tr: retention time on chiral HSA column, pH 7.0, 37° C.; for affinity in vitro to human albumin: text summary of Table 7. From the text:
The test system used in this analysis was an HSA chiral column.
The relationship between the retention time (Tr) and percentage of albumin binding (AB %) depended on the dead time (TO) and the capacity factor (k′): AB%=[k′/(k′+1)]*100
HSA binding was classified as follows:
75%≦AB<90%: Moderate binding

For orientation: IC50 means the midpoint of a concentration-inhibition curve.

In brackets after ≈: the same amount, converted by molar mass.

human albumin (HSA), sequence (P02768 25-609): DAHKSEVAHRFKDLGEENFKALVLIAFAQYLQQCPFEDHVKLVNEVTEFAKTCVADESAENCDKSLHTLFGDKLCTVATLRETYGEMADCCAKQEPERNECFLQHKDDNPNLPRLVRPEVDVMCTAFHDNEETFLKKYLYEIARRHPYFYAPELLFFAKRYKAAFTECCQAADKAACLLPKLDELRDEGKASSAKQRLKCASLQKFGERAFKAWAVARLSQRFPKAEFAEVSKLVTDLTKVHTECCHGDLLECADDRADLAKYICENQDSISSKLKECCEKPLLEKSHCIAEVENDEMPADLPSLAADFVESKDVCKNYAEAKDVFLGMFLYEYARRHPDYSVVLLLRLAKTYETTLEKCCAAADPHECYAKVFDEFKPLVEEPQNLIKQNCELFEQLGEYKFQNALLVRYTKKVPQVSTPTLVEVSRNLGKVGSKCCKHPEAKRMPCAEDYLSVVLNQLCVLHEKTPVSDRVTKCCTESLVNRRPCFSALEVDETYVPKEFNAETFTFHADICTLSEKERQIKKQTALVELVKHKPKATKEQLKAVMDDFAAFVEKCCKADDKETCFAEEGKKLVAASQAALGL

In the case of `CCCC1CCN(C(=O)/C=C/c2cnc3c(c2)CCC(=O)N3)CC1` [Example 8, 6-[(1E)-3-Oxo-3-(4-propylpiperidin-1-yl)prop-1-en-1-yl]-3,4-dihydro-1,8-naphthyridin-2(1H)-one], in series [1], the 50% inhibitory concentration (IC50) turned out to be 41 nM. Also, the MIC in the series with S. aureus CIP 54.146 was 4 µg/mL (≈ 12.2 µM).

On to `Cc1c(C2CN(C(=O)/C=C/c3cnc4c(c3)CC3(CCN(C)CC3)C(=O)N4)C2)oc2ccccc12` [Example 68, (E)-1′-Methyl-6-(3-(3-(3-methylbenzofuran-2-yl)azetidin-1-yl)-3-oxoprop-1-enyl)-1H-spiro[[1,8]naphthyridine-3,4′-piperidin]-2(4H)-one], for which the MIC in the series with C. albicans (ATCC 90028) was greater than 128 µg/mL; in the series with E. coli (ATCC 25922) it was greater than 128 µg/mL; in the series on E. faecalis (ATCC 29212), greater than 128 µg/mL; in the series on MRSA (IHMA #510059) it was 0.5 µg/mL (≈ 1.06 µM); in the series on MSSA (IHMA #555189) it was 0.5 µg/mL (≈ 1.06 µM); in the series on S. aureus ATCC 29213, 0.5 µg/mL (≈ 1.06 µM). Also, in series [2], the MIC came to 128 µg/mL (≈ 272 µM). For the same compound, the “HSA Binding (%)” value on human albumin (HSA) was found to be 91.8%. For the same compound, the “k′” value at human albumin (HSA) amounted to 11.216. The “Conclusion (HSA binding class)” value at human albumin (HSA) is “High binding (AB≧90%: High binding)”. For the same compound, the “Tr” value on human albumin (HSA) amounted to 9.414 min. Also, on human albumin (HSA), the “affinity in vitro to human albumin” value is “high affinity”.

Turning to `Cc1c(C2CN(C(=O)/C=C/c3cnc4c(c3)CCC(=O)N4)C2)oc2ccccc12` [Example 67, (E)-6-(3-(3-(3-Methylbenzofuran-2-yl)azetidin-1-yl)-3-oxoprop-1-enyl)-3,4-dihydro-1,8-naphthyridin-2(1H)-one], the MIC in the series with C. albicans (ATCC 90028) is greater than 128 µg/mL; in the series with E. coli (ATCC 25922) it was greater than 128 µg/mL; with E. faecalis (ATCC 29212) it was greater than 128 µg/mL; in the series on MRSA (IHMA #510059), 0.06 µg/mL (≈ 0.155 µM); in the series on MSSA (IHMA #555189) it was 0.06 µg/mL (≈ 0.155 µM); in the series with S. aureus ATCC 29213, 0.06 µg/mL (≈ 0.155 µM). Further, in series [2], the MIC came to 128 µg/mL (≈ 330 µM). The “HSA Binding (%)” value at human albumin (HSA) came to 89.3%. Besides, the “k′” value on human albumin (HSA) is 8.360. At human albumin (HSA), the “Conclusion (HSA binding class)” value was “Moderate”. The “Tr” value on human albumin (HSA) amounted to 7.229 min. The “affinity in vitro to human albumin” value on human albumin (HSA) is “moderate affinity”.

Consider `O=C1CCc2cc(/C=C/C(=O)N3CCC(Oc4ccccc4)C3)cnc2N1` (stereo not shown) [Example 10, 6-[(1E)-3-Oxo-3-(3-phenoxypyrrolidin-1-yl)prop-1-en-1-yl]-3,4-dihydro-1,8-naphthyridin-2(1H)-one], for which the IC50 in series [1] turned out to be 120 nM. Moreover, the MIC in the series on S. aureus CIP 54.146 was 4 µg/mL (≈ 11 µM).

For the compound `CN1CCC2(CC1)Cc1cc(/C=C/C(=O)N3CC(c4cc5ccccc5o4)C3)cnc1NC2=O` [Example 69, (E)-6-(3-(3-(Benzofuran-2-yl)azetidin-1-yl)-3-oxoprop-1-en-1-yl)-1′-methyl-1H-spiro[[1,8]naphthyridine-3,4′-piperidin]-2(4H)-one], the MIC is greater than 128 µg/mL in the series on C. albicans (ATCC 90028); greater than 128 µg/mL in the series with E. coli (ATCC 25922); greater than 128 µg/mL with E. faecalis (ATCC 29212); 1 µg/mL (≈ 2.19 µM) in the series with MRSA (IHMA #510059); 1 µg/mL (≈ 2.19 µM) in the series with MSSA (IHMA #555189); 1 µg/mL (≈ 2.19 µM) with S. aureus ATCC 29213. Besides, in series [2], the MIC amounted to 128 µg/mL (≈ 280 µM). Moreover, the “HSA Binding (%)” value at human albumin (HSA) is reported as 88.5%. Besides, the “k′” value at human albumin (HSA) was determined as 7.730. The “Conclusion (HSA binding class)” value at human albumin (HSA) is recorded as “Moderate”. The “Tr” value at human albumin (HSA) stood at 6.734 min. For the same compound, the “affinity in vitro to human albumin” value at human albumin (HSA) is reported as “moderate affinity”.

With `O=C1CCc2cc(/C=C/C(=O)N3CC(OCCc4cccs4)C3)cnc2N1` [Example 29, (E)-6-(3-Oxo-3-(3-(2-(thiophen-2-yl)ethoxy)azetidin-1-yl)prop-1-enyl)-3,4-dihydro-1,8-naphthyridin-2(1H)-one], the MIC in the series with C. albicans (ATCC 90028) is greater than 128 µg/mL; in the series on E. coli (ATCC 25922), greater than 128 µg/mL; in the series with E. faecalis (ATCC 29212) it was greater than 128 µg/mL; with MRSA (IHMA #510059) it was 0.5 µg/mL (≈ 1.3 µM); in the series on MSSA (IHMA #555189) it was 0.5 µg/mL (≈ 1.3 µM); in the series with S. aureus ATCC 29213, 0.5 µg/mL (≈ 1.3 µM). Besides, the MIC in [2] is greater than 128 µg/mL. Besides, at human albumin (HSA), the “HSA Binding (%)” value is reported as 55.7%. The “k′” value at human albumin (HSA) was 1.259. In addition, the “Conclusion (HSA binding class)” value on human albumin (HSA) is listed as “Low binding (AB<75%: Low binding)”. For the same compound, at human albumin (HSA), the “Tr” value was 1.743 min. Also, the “affinity in vitro to human albumin” value on human albumin (HSA) is listed as “low affinity”.

The values are drawn from patent US8846711B2, “Heterocyclic acrylamides and their use as pharmaceuticals” (Fab Pharma S.A.S., priority 2009, dated 2014).
